The values below come from PMC9704104, “Towards safer anti-inflammatory therapy: synthesis of new thymol–pyrazole hybrids as dual COX-2/5-LOX inhibitors” (Journal of Enzyme Inhibition and Medicinal Chemistry, 2022).

One data set addresses T1, COX-1 (Ovis aries, UniProt P05979).
T1 construct: purchased Cayman chemicals 560131
T1 sequence (P05979 25-600): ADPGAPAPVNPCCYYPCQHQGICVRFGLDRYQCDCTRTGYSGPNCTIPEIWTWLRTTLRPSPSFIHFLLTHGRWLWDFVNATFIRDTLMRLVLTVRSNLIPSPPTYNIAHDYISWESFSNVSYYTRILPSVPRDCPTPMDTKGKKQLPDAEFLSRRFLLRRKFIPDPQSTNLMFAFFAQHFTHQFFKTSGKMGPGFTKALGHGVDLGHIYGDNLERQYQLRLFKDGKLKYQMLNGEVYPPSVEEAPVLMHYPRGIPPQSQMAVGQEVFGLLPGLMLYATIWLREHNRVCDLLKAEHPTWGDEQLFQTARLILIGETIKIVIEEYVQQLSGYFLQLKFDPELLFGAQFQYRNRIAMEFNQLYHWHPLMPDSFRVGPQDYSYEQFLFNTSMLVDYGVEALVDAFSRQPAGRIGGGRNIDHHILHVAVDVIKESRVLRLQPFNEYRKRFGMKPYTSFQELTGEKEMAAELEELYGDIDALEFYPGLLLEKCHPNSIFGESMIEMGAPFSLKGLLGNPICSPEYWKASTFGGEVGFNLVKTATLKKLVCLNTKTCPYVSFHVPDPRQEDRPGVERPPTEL
Briefly: In vitro COX-1 inhibitory assay (Cayman colorimetric COX (ovine) inhibitor screening assay kit). It is filed as biochemical. To be noted: mean of three replicates ± SD. The protocol:
(Page: S20, Supplementary file).
Anti-inflammatory activity
In vitro COX-1 and COX-2 inhibitory assay […]
supplied by Cayman chemicals, Ann Arbor, MI, USA according to reported method 1. The colorimetric COX inhibitor screening assay utilizes the peroxidase component of cyclooxygenase. The peroxidase activity was assayed calorimetrically by monitoring the appearance of oxidized N,N,N',N'-tetramethyl-1,4-phenylenediamine (TMPD) at 590nm. The appearance of reagent was carried out following the instructions […]
The half- maximal inhibitor concentrations (IC50µM) were determined and the selectivity index (SI) values were calculated as IC50 (COX-1)/IC50 (COX-2).
1) Background wells- 160 µL of assay buffer and 10 µL of heme were added to background wells.
2) The 100% Initial activity wells- 150 µL of assay buffer, 10 µL of heme and 10 µL of enzyme (COX-1 or COX-2) were added.
3) Inhibitor well- 150 µL of assay buffer, 10 µL of heme and 10 µL of enzyme were added.
4) 10 µL of inhibitor (3 concentrations) in DMSO was added to the inhibitor wells to yield a final […]
5) 10 µL of solvent (DMSO) was added to the 100% Initial activity wells and background wells.
7) 20 µL of colorimetric substrate solution (TMPD) was added to all wells.
8) 20 µL of arachidonic acid was added to all wells to yield a final concentration of 100 µM.
10) The absorbance was measured at 590 nm using a plate reader.
The calculations were carried out in the following manner:
1) The average absorbance of all samples was determined.
2) The absorbance of background wells was subtracted from absorbance of the 100% Initial activity […]
3) Percent inhibition = (100% Initial activity – Inhibitor wells/ 100% Initial activity)∗ 100 […]
Place the 96-well plate on a shaker for at least five minutes. […]

A further data set concerns 5-LOX. Briefly: In vitro 5-LOX inhibitory assay (Abnova 5-LOX inhibitor screening assay kit). The format is biochemical. The text has this:
The newly synthesised compounds were screened for their ability to inhibit 5-LOX enzymes. […] (Page: S21, Supplementary file). […]
In vitro LOX inhibitory assay
Inhibitor Screening Assay Kit detects and measures the hydroperoxides produced in the lipoxygenation reaction using a purified LOX. The detection reaction is equally sensitive to hydroperoxides at various positions within the fatty acid and will work with fatty acids of any carbon length. It is thus a general detection method for 5-LOX and can be used to screen libraries of compounds for those which inhibit 5 -LOX enzymes.
1) Blank Wells- add 100 µL of assay buffer to at least two wells.
2) Positive Control Wells- Lipoxygenase (15-LO standard) add 90 µL 15-LO and 10 µL of assay buffer […]
3) 100% Initial Activity Wells- add 90 µL 15-LO and 10 µL of solvent (DMSO) (the same solvent to dissolve the inhibitor) to two wells. The 100% initial activity wells should result in approximately 10 […]
4) Inhibitor Wells- add 90 µL of sample and I10 µL of inhibitor to two wells.
5) Initiate the reaction by adding 10 µL of substrate (either arachidonic acid or linoleic acid) to all the wells. Place the 96-well plate on a shaker for at least five minutes.
6) Add 100 µL of chromogen to each well to stop enzyme catalysis and develop the reaction. Cover with a plate cover and place the 96-well plate on a shaker for at least five minutes.
7) Remove the cover and read the absorbance at 490-500 nm using a plate reader.
Inhibitors were dissolved in DMSO. The inhibitors were added to the assay in a final volume of 10 µL before initiating with substrate. Three concentrations were prepared (25, 50 and 100 µM) to determine the concentration produced 50% enzyme inhibition.
2) The absorbance of blank wells was subtracted from absorbance of the 100% Initial activity and the […]

For data set [1], the system named is formalin-induced rat paw oedema. Briefly: Formalin-induced paw oedema test (acute inflammation model). The format is in vivo. To be noted: for % inhibition of paw oedema compared with reference drugs (in words) / inhibition in vivo at 5 mg/kg: 4 h; for % inhibition of paw oedema compared with reference drugs (in words) / Volume of oedema (ml) 4h / inhibition in vivo at 5 mg/kg / Volume of oedema (ml) 0: 5 mg/kg orally; for % inhibition of paw oedema compared with reference drugs (in words): comparison with celecoxib or diclofenac sodium; for Volume of oedema (ml) 4h: 4 h after formalin; for Volume of oedema (ml) 4h / inhibition in vivo at 5 mg/kg / % Relative potency (4h) celecoxib / % Relative potency (4h) diclofenac / Volume of oedema (ml) 0: individual rats 1-3; for inhibition in vivo at 5 mg/kg: Rattus norvegicus, po, read-out: % Inhibition of oedema volume; for % Relative potency (4h) celecoxib, Mean ± SD / % Relative potency (4h) celecoxib: relative to % inhibition of celecoxib at 4 h; for % Relative potency (4h) celecoxib, Mean ± SD / % Relative potency (4h) diclofenac, Mean ± SD: group mean ± SD; for % Relative potency (4h) diclofenac, Mean ± SD / % Relative potency (4h) diclofenac: relative to % inhibition of diclofenac at 4 h. The protocol: Animals Adult female albino rats weighing 150-250 g were used (Experimental Animal Centre in Alexandria University). All animals accessed to food and water ad libitum and were housed in 12 h dark/light cycle in a controlled condition at 23-250C. They were allowed to acclimatize for 1 week prior to experimentation. Procedures involving animals and their care were conducted in conformity with the Guide for the Care and Use of Laboratory Animals published by US National Institute of Health4 (NIH publication No. 83-23, revised) and following the ethical guidelines of Alexandria University on laboratory animals. In all tests, adequate considerations were adopted to reduce pain or discomfort of animals (Approved by AlexU-IACUC) 3. […]
Formalin-induced paw edema test (acute inflammation model):
A solution of freshly prepared formalin 5% was used as a phlogistic agent. A mark was made on the lateral malleolus of the rats’ paws delineating the injection sites. The initial volume of paw was measured by means of digital calibrated Vernier caliper .
After 45 minutes, 40 μl formalin were injected subcutaneously into the sub plantar tissue of the right hind paw of all groups under light ether anesthesia . An equal volume of saline was injected into the left hind paw and served as internal control for the degree of inflammation in the right hind paw. 5, 6 The volume of paw was measured in different treatment groups, 4 h following the formalin injection and the amount of increase in paw volume (edema volume) was calculated by subtracting the volumes before and 4 h after the injection of formalin. Edema was expressed as an increase in the volume of paw, and the percentage of edema inhibition (or percent protection against inflammation) for each rat and each group was calculated according to the following equation: […]
Where Vt is the mean volume of edema at specific time interval (4 h) and Vo is the mean volume of edema […]
Relative potency of the tested compounds was expressed as % inhibition of edema for the tested compounds

The subject of a further data set is gastric mucosa. Briefly: In vivo gastric ulcerogenic activity (gross examination of gastric mucosa). To be noted: fasted rats, 60 mg/kg orally, six hours after treatment, 60 mg/kg.

Where “and” joins values, the source holds several entries; their conditions need not be identical. Identical values can stand only once. Entries after “also recorded” stand apart in the source; their conditions may differ.

Experimental for gastric mucosa: Compounds were evaluated for acute gastric ulcerogenic effect in adult female Wistar rats. Gross examination was performed for any evidence of hyperaemia, haemorrhage, definite haemorrhagic erosion, or ulcer according to reported procedures[49]^,[51]
Compounds were evaluated for acute gastric ulcerogenic effect in adult female Wistar rats. Rats (150–250 g)
were divided into groups of six rats each and test compounds, references or DMSO as control were
administered orally at a dose of 60 mg/kg body weight (three times the previously used dose). Six hours after
the treatment they were sacrificed under deep ether anesthesia and their stomachs were removed and opened
through greater curvature, washed under running water and fixed in saline solution. Gross examination was
performed for any evidence of hyperemia, hemorrhage, definite hemorrhagic erosion or ulcer 6, 7 (Approved
The degree of ulcerogenicity was determined by viewing the gastric epithelial ulceration using a 5x
magnifying lens and rated by ulcer score.
Ulcer score was used to grade the incidence and severity of the lesions such as:
1) Shedding of epithelium—10
2) Petechial and frank hemorrhages—20
4) More than two ulcers—40

Usually IC50 stands for the concentration that gives 50% inhibition. High values mean lower potency, low ones higher potency. At COX-1, `Cc1ccc(C(C)C)c(O)c1C=NNC(=O)c1cc(-c2ccccc2)n(-c2ccc(S(N)(=O)=O)cc2)n1` [Compound 8a, 4-(3-(2–(2-Hydroxy-3-isopropyl-6-methylbenzylidene)hydrazine-1-carbonyl)-5-phenyl-1H-pyrazol-1-yl)benzenesulfonamide] registered an IC50 of 11.2 ± 0.15 µM. The compound further displayed an IC50 with 5-LOX of 1.96 ± 0.036 µM. In data set [1], the “% inhibition of paw oedema compared with reference drugs (in words)” value (“% inhibition of paw oedema” for short) is “slightly less % inhibition than that of Diclofenac sodium”; the inhibition in vivo at 5 mg/kg is 40.1%; the “% Relative potency (4h) celecoxib, Mean ± SD” value is given as 106.8 ± 12.02%; the “% Relative potency (4h) celecoxib” value was 114.10% and 92.90% and 113.30%. Further, in data set [1], the “% Relative potency (4h) diclofenac, Mean ± SD” value was 74.10 ± 9.64%; the “% Relative potency (4h) diclofenac” value is 84.80% and 66.10% and 71.40%. Moreover, in data set [1] (5 mg/kg), the “Volume of oedema (ml) 4h” value worked out at 6.35 mL and the “Volume of oedema (ml) 0” value worked out at 5.02 mL. Besides, in the data set with gastric mucosa, the “Gross appearance of gastric mucosa (ulcerogenic potential)” value (“Gross appearance of gastric mucosa” for short) is on record as “variable degrees of hyperaemia; also recorded: Hyperemia without gross ulceration”.

Compound `Cc1ccc(C(C)C)c(O)c1C=NNC(=O)c1cc(-c2ccc(Br)cc2)n(-c2ccc(S(N)(=O)=O)cc2)n1` [Compound 8b, 4-(5-(4-Bromophenyl)-3-(2-(2-hydroxy-3-isopropyl-6-methylbenzylidene)hydrazine-1-carbonyl)-1H-pyrazol-1-yl)benzene sulphonamide] came in with an IC50 against COX-1 of 13.61 ± 0.096 µM. Further, the IC50 in the data set on 5-LOX was found to be 1.58 ± 0.026 µM. Moreover, in data set [1] (5 mg/kg), the “% inhibition of paw oedema” value is reported as “nearly equal activity to celecoxib; also recorded: slightly less % inhibition than that of Diclofenac sodium” and the “Volume of oedema (ml) 0” value worked out at 5.02 mL. In data set [1], the inhibition in vivo at 5 mg/kg was 40.1%; the “% Relative potency (4h) celecoxib” value was 114.10% and 86.90% and 93.30%; the “% Relative potency (4h) diclofenac, Mean ± SD” value is 68.50 ± 14.20%; the “% Relative potency (4h) diclofenac” value is 84.80% and 61.90% and 58.80%. Moreover, the “Gross appearance of gastric mucosa” value with gastric mucosa is reported as “No gross ulceration”.

Broadly, the melting point is the temperature, or range, at which the solid turns liquid. `COc1ccc(-c2cc(C(=O)NN=Cc3c(C)ccc(C(C)C)c3O)nn2-c2ccc(S(N)(=O)=O)cc2)cc1` [Compound 8c, 4-(3-(2-(2-Hydroxy-3-isopropyl-6-methylbenzylidene)hydrazine-1-carbonyl)-5-(4-methoxyphenyl)-1H-pyrazol-1-yl)benzenesulfonamide]: the melting point was in the range of 245 to 247 °C. Moreover, on COX-1, half-maximal inhibition (IC50) required 12.87 ± 0.097 µM. The midpoint of inhibition in the data set with 5-LOX, the IC50, lay at 1.91 ± 0.053 µM. In data set [1] (5 mg/kg), the “Volume of oedema (ml) 4h” value is 5.80 mL. For the same compound, in data set [1], the inhibition in vivo at 5 mg/kg came to 60.4%; the “% Relative potency (4h) celecoxib, Mean ± SD” value is listed as 170.0 ± 9.73%; the “% Relative potency (4h) celecoxib” value was 171.80% and 159.50% and 178.70%; the “% Relative potency (4h) diclofenac, Mean ± SD” value is recorded as 117.9 ± 8.39%. The “% Relative potency (4h) diclofenac” value in data set [1] is 127.60% and 113.60% and 112.60%.

Regarding `Cc1ccc(C(C)C)c(O)c1C=NNC(=O)c1cc(-c2ccccc2)n(-c2ccc(Cl)cc2)n1` [Compound 8g, 1-(4-Chlorophenyl)-N'-(2-hydroxy-3-isopropyl-6-methylbenzylidene)-5-phenyl-1H-pyrazole-3-carbohydrazide], the IC50 at COX-1 came to 12.1 ± 0.16 µM. This compound also came in with an IC50 with 5-LOX of 1.6 ± 0.042 µM. Besides, in data set [1], the inhibition in vivo at 5 mg/kg worked out at 52.7%; the “% Relative potency (4h) celecoxib, Mean ± SD” value is reported as 148.6 ± 2.99%; the “% Relative potency (4h) celecoxib” value is 150.0% and 145.20% and 150.70%; the “% Relative potency (4h) diclofenac, Mean ± SD” value came out at 103.3 ± 8.20%. Besides, in data set [1], the “% Relative potency (4h) diclofenac” value was 111.40% and 103.40% and 95.0%. The “Gross appearance of gastric mucosa” value in the data set with gastric mucosa is “No gross ulceration”.

`Cc1ccc(C(C)C)c(O)c1C=NNC(=O)c1cc(-c2ccc(Br)cc2)n(-c2ccc(Cl)cc2)n1` [Compound 8h, 5-(4-Bromophenyl)-1-(4-chlorophenyl)-N'-(2-hydroxy-3-isopropyl-6-methylbenzylidene)-1H-pyrazole-3-carbohydrazide] came in with an IC50 against COX-1 of 12.6 ± 1.36 µM. 1.97 ± 0.026 µM corresponded to half-maximal inhibition in the data set on 5-LOX (IC50). Moreover, in data set [1], the “% inhibition of paw oedema” value was “slightly less % inhibition than that of Diclofenac sodium”; the inhibition in vivo at 5 mg/kg was 53.6%; the “% Relative potency (4h) celecoxib, Mean ± SD” value is recorded as 140.9 ± 20.93%; the “% Relative potency (4h) celecoxib” value is 152.60% and 116.70% and 153.30%. Further, in data set [1], the “% Relative potency (4h) diclofenac, Mean ± SD” value was found to be 97.67 ± 15.13%; the “% Relative potency (4h) diclofenac” value is 113.30% and 83.10% and 96.60%. Also, the “Volume of oedema (ml) 0” value in data set [1] (5 mg/kg) was found to be 5.02 mL. Besides, the “Gross appearance of gastric mucosa” value with gastric mucosa is given as “variable degrees of hyperaemia; also recorded: Hyperemia without gross ulceration”.
